This note sets out measurements from patent US10342866B2, “Compositions and methods for immunotherapies comprising small molecule integrin receptor-ligand agonist adjuvants” (7 Hills Interests LLC, priority 2015, dated 2019).

One assay deals with T1, α4β1 (VLA-4) (Homo sapiens, UniProt P05556+P13612).
T1 construct: the cells expressed the appropriate integrin receptor either endogenously (Jurkat/α4β1, K562/α5β1, Jurkat (a4-)/αLβ2, HSB/αLβ2); host or cells: Jurkat
The experiment in a line: Static cell adhesion assay, α4β1-mediated adhesion to VCAM-1. The settings on record: Jurkat cells on sub-optimal VCAM-1 coating; PBS, 1 mM MgCl2, 50% FBS; read-out: Activity (EC50) in enhancing adhesion mediated by α4β1 (VLA-4). Type of assay: cell-based. As to the method:
(§1) For all assays described, C4 was dissolved in DMSO to make a 1 mM stock solution, and dilutions were made in assay buffer or media to yield the desired final working concentrations in 1% DMSO (vehicle). Human VCAM-1, MAdCAM-1 Fc chimera, ICAM-1, and SDF-1α were purchased from R&D Systems (Minneapolis, Minn.). Human serum fibronectin was purchased from Sigma-Aldrich (St. Louis, Mo.). The cell lines NK-92, Jurkat, K562, and HSB were obtained from American Type Culture Collection (Manassas, Va.) and were maintained in recommended culture media. The mutant Jurkat cell line not expressing α4 integrin (Jurkat [a4-]) was a gift from Dr. David Rose, University of California San Diego, La Jolla, Calif.
(§2) Ligands (VCAM-1, MAdCAM-1, fibronectin, or ICAM-1) in 50 μL of 50 mM Tris-HCl (pH 7.4), 150 mM NaCl, (TBS) were added to wells of a 96-well plate and allowed to coat overnight at 4° C. In order to maximize the window to evaluate agonist activity, a sub-optimal coating concentration of ligand was used. This ligand concentration corresponded approximately to that which would yield ≤5% adhesion as determined by dose-response curves of ligand binding to the appropriate cell type. All assays were performed as previously described. Briefly, 2×10^6 cells were labeled for 30 minutes with calcein-AM (Molecular Probes), washed, resuspended in binding buffer, and added to ligand-coated plates (2×10^5 cells/well) that had been blocked with 2% BSA. The binding buffer was PBS with 1 mM MgCl2 and 50% FBS (VCAM-1 and ICAM-1 assays) or TBS with 1 mM MnCl2 and 50% FBS (MAdCAM-1 and fibronectin assays). After a 30-minute incubation at 37° C., the plates were washed 3 times with the respective binding buffer (except without the serum), the adherent cells were lysed, and fluorescence was measured on a Tecan Safire^2 plate reader. Standard curves were run for each assay to convert fluorescence units to cell number. For each assay, the cells expressed the appropriate integrin receptor either endogenously (Jurkat/α4β1, K562/α5β1, Jurkat (a4-)/αLβ2, HSB/αLβ2) or in recombinant form (K562/α4β7). Generation of the recombinant K562 cell line has been described.

The target in a further assay is T2, αLβ2 (LFA-1) (Homo sapiens, UniProt P05107+P20701).
T2 construct: the cells expressed the appropriate integrin receptor either endogenously (Jurkat/α4β1, K562/α5β1, Jurkat (a4-)/αLβ2, HSB/αLβ2); endogenous in cells; host or cells: Jurkat (α4-) or HSB
T2 sequence (P20701 26-1170): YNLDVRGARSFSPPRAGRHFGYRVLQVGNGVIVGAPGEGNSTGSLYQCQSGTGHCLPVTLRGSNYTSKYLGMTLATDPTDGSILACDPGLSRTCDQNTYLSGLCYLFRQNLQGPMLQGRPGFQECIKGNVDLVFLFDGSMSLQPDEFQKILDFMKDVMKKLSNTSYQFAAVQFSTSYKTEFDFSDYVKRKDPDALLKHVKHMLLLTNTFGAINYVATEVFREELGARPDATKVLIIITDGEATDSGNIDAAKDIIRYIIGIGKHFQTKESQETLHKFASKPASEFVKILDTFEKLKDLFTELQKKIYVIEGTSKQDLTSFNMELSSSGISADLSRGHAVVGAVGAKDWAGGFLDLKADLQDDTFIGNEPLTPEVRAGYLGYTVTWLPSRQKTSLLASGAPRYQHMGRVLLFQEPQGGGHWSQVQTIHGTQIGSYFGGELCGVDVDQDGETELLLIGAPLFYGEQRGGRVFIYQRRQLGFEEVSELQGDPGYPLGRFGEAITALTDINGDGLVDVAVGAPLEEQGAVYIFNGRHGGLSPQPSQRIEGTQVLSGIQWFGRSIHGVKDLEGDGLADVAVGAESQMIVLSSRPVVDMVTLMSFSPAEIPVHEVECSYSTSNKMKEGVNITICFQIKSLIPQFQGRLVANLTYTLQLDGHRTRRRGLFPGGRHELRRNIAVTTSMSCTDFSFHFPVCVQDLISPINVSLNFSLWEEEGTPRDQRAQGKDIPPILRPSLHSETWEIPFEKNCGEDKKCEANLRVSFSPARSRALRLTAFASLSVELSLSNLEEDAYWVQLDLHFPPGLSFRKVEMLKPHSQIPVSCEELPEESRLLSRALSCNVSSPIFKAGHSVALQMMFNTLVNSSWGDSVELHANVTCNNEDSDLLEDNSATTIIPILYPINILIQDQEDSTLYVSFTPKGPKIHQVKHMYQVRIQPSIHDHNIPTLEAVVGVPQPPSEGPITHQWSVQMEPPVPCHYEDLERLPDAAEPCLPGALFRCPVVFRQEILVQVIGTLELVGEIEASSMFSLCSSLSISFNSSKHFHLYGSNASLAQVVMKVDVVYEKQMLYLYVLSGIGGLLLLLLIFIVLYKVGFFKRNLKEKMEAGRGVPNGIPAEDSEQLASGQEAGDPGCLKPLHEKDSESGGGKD
T2 sequence (P05107 23-769): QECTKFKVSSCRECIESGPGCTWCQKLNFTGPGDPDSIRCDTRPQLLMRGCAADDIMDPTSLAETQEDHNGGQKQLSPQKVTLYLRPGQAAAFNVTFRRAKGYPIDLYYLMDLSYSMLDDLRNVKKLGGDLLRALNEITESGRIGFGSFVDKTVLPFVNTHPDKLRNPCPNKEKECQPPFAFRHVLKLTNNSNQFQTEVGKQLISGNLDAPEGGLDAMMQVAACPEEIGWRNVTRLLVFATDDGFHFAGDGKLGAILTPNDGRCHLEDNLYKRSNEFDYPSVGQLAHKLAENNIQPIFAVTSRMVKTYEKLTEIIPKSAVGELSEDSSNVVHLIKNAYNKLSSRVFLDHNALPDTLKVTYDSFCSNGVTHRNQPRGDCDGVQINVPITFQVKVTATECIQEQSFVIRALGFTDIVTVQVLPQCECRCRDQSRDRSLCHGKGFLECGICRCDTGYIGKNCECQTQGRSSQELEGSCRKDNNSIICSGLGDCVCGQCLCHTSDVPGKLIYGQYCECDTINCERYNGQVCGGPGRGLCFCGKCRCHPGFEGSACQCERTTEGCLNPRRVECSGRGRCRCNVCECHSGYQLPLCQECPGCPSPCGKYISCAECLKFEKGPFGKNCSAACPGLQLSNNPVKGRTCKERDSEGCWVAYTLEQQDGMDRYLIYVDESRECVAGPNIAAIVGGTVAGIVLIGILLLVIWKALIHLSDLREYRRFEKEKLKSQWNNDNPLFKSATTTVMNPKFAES
The experiment in a line: Static cell adhesion assay, αLβ2-mediated adhesion to ICAM-1. Type of assay: cell-based. The following applies: Jurkat (a4-) or HSB cells on sub-optimal ICAM-1 coating; PBS, 1 mM MgCl2, 50% FBS; read-out: Activity (EC50) in enhancing adhesion mediated by αLβ2 (LFA-1). The method, then:
as §1, §2

The next assay deals with K562 tumor target cells. The experiment in a line: NK cytotoxicity testing (NK cell cytolysis of tumor target cells). The assay is classed as cell-based, human. As to the method: FIG. 1 depicts C4 enhancement of natural killer cell cytolysis of tumor target cells. Freshly isolated CD56+ natural killer cells were isolated from the peripheral blood of a healthy volunteer. Cells were either incubated with vehicle control (DMSO), or indicated concentrations of C4 for 4 h in the presence of tumor target cells (the erythroleukemic cell line K562). Data is presented as a percent increase in tumor cell killing.
FIG. 2 depicts the natural killer cell line NK-92, which was used at different effector to target ratios in the presence or absence of C4 (100 μM). Specific lysis of K562 cells is shown. All data are from triplicate determinations, and graphed as the mean+SD. […]
Human NK cells were purified from leukoreduction filters obtained from healthy volunteers using a CD56+ magnetic bead based enrichment column from Multenyi Biotech (as per manufacturer's instructions). Purified cells were routinely >90% CD56+ positive as measured by flow cytometry. […] After a 4 h incubation at 37° C., 5% CO2, culture supernatants were removed and liberated TDA (2,2′:6′,2″-terpyridine-6,6″-dicarboxylic acid) was detected by addition of DELFIA solution to form EuTDA, and fluorescence was measured on a Tecan Safire 2 multimodal plate reader. […] Results are expressed as the percent specific lysis, calculated as [(experimental signal−spontaneous release)/(total signal−spontaneous release).

The next assay relates to Jurkat cells. The assay can be described thus: SDF-1α mediated migration assay across VCAM-1 coated membranes. Type of assay: cell-based. The settings on record: 4-hour incubation; *p<0.05 (FIG. 3A&B). As to the method:
(§3) FIGS. 3A&B depicts activity of C4 in enhancing SDF-1α mediated migration of Jurkat T cell, an exemplary activated T-cell, across membranes coated with either VCAM-1 or ICAM-1 (*p<0.05).
(§4) Migration assays were performed in […] pore size Transwells (24 well, Costar, Cambridge, Mass.). The upper chambers were pre-coated with […] VCAM-1 or 1 μg/mL ICAM-1 in […] TBS overnight at 4° C. and were then blocked with 2% BSA for 1 hour at room temperature. After washing with migration medium (RPMI-1640 supplemented with 1% FBS, 100 units/mL penicillin and 100 μg/mL streptomycin), upper chambers were loaded with 2×10^5 cells Jurkat cells (VCAM-1 assays) or Jurkat (a4-) cells (ICAM-1 assays) in 160 μL of migration medium. Lower chambers contained 600 μL of migration medium supplemented with 5 µg/mL (VCAM-1 assays) or 1 μg/mL (ICAM-1 assays) SDF-1α to induce chemotaxis. Jurkat cells were mixed with vehicle (1% DMSO) or C4 at the indicated concentrations immediately prior to being added to the upper chamber. After a 4-hour incubation at 37° C., 5% CO2, the upper chambers were removed, and cells in the lower chamber were collected and counted on a hemocytometer. Results are expressed as the total number of cells migrated.

A further assay relates to Jurkat (a4-) cells. The experiment in a line: SDF-1α mediated migration assay across ICAM-1 coated membranes. The assay is classed as cell-based. The settings on record: 4-hour incubation, *p<0.05 (FIG. 3A&B). As to the method:
as §3, §4

Another assay concerns B16-BL6 melanoma. The assay can be described thus: Checkpoint blockade B16-BL6 melanoma model. The assay is classed as in vivo, C57BL/6 mice. The settings on record: C4 intratumorally 1 mg/kg twice weekly for 30 days from day 11. The method, then:
C4 was tested in a B16-BL6 melanoma model to determine potential effects on the current checkpoint blockade therapy anti-CTLA-4. Briefly, thirty C57BL/6 were randomized into 3 groups (n=10). C4 was added to a regimen of GVAX®/anti-CTLA-4. Historically, these treatment regimens result in at best, a 20% tumor free survival. On day 0, B16-BL6 cells (2.5×10^4) were injected subcutaneously. GVAX®/anti-CTLA-4 (clone 9H10), or IgG controls, were administered on days 3, 6, and 9. On day 11, C4 treatment was initiated intratumorally twice weekly (1 mg/kg) for 30 days. Vehicle control was added to the IgG group.
The B16-BL6 therapeutic melanoma model is well described. Briefly, B16-BL6 cells (>90% viability) were be resuspended at 2.5×10^5 cells/ml in HBSS (4° C.). At day 0 (d0), C57BL/6 mice (4-6 wk old, female) were inoculated (subcutaneous, flank) with 2.5×10^4 cells (100 μL). At d3, appropriate groups received B16-GM-CSF vaccine (GVAX®). GVAX® preparation followed established procedures. Log-phase growth B16-GM-CSF cells were harvested as described above for B16-BL6 cells, but resuspended at 1×10^7 cells in HBSS (4° C.). Cells were irradiated (5000 rad) and injected into contralateral flanks (100 μL, […]). Also at d3, all animals received anti-CTLA-4 (mAb 9H10, BioXcell, 200 μg/animal, twice weekly). […] Animals were monitored daily for distress and survival was assessed twice daily. […]

T1 sequence (P13612 34-1032): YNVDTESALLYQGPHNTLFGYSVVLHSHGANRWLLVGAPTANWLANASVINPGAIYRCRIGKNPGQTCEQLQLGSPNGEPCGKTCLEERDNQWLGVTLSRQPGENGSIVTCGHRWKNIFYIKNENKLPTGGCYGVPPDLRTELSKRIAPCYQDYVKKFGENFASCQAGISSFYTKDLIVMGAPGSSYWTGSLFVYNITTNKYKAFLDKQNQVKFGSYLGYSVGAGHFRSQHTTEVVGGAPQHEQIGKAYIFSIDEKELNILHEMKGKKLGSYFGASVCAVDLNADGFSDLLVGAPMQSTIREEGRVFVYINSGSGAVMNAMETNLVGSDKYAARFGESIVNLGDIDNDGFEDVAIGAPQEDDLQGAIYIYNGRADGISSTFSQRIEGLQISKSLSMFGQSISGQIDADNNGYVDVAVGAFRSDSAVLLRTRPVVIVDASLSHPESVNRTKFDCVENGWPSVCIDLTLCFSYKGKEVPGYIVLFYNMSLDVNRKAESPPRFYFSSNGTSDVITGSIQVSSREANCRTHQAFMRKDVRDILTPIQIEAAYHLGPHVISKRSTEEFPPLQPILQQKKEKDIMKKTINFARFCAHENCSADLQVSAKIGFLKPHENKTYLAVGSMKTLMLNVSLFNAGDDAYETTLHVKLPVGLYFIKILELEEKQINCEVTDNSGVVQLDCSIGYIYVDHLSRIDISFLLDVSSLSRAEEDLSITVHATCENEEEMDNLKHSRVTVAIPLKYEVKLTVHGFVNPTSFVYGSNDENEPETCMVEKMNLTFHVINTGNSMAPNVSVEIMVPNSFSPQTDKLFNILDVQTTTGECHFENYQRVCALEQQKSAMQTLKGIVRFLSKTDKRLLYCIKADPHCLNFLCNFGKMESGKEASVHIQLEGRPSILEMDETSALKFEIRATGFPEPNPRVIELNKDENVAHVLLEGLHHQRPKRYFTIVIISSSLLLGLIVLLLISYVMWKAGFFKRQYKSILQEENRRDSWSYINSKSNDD
T1 sequence (P05556 21-798): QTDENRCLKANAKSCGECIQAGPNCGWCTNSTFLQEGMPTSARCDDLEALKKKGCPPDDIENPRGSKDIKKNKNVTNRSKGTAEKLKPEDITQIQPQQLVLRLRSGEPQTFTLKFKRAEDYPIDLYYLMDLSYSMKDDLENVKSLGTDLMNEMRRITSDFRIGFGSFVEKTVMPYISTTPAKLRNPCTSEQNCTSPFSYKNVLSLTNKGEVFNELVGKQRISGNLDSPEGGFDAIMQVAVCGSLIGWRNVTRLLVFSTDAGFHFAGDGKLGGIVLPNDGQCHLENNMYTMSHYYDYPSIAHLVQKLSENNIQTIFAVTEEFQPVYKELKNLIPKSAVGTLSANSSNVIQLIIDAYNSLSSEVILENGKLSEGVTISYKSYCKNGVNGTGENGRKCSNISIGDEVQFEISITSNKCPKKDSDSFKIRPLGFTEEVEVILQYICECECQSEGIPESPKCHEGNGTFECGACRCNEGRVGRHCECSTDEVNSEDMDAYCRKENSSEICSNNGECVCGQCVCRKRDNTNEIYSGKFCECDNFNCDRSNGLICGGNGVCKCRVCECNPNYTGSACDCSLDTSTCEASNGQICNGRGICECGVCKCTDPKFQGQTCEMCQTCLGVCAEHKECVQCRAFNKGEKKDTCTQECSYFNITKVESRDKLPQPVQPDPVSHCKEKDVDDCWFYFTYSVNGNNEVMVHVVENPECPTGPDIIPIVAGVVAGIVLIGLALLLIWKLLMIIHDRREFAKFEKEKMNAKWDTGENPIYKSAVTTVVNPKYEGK

As to `O=C(OCCOCCOCCOC(=O)N(Cc1cccs1)Cc1cccs1)N(Cc1cccs1)Cc1cccs1` [Compound C4, (ethane-1,2-diylbis(oxy))bis(ethane-2,1-diyl) bis(bis(thiophen-2-ylmethyl)carbamate)], the EC50 on α4β1 (VLA-4) is 14 µM. In addition, the EC50 on αLβ2 (LFA-1) is 11 µM. Moreover, the “Killing (specific lysis) of K562 tumor target cells by NK-92 cell line” value in the assay with K562 tumor target cells (different effector to target ratios, C4 100 μM (FIG. 2)) is recorded as “enhanced”. Moreover, in the assay on K562 tumor target cells (human NK cells from healthy volunteer, 4 h, with or without C4 (FIG. 1)), the “Killing of K562 tumor target cells by freshly isolated CD56+ NK cells” value is reported as “enhanced”. Also, the “SDF-1α mediated migration of Jurkat T cells across VCAM-1 coated membranes” value with Jurkat cells is reported as “enhancing”. Also, in the assay with Jurkat (a4-) cells, the “SDF-1α mediated migration of Jurkat T cells across ICAM-1 coated membranes” value is listed as “enhancing”. Besides, in the assay with B16-BL6 melanoma, the “Long term tumor free survival on addition to GVAX/anti-CTLA-4 (in words)” value is “significant increase” and the “Median survival benefit on addition to GVAX/anti-CTLA-4 (in words)” value is “significant median survival benefit”.
In the case of `COc1ccc(CN(Cc2ccc(OC)cc2)C(=O)CCCCC(=O)N(Cc2ccc(OC)cc2)Cc2ccc(OC)cc2)cc1` [Compound C2, N^1,N^1,N^6,N^6-tetrakis(4-methoxybenzyl)adipamide], the EC50 on α4β1 (VLA-4) and on αLβ2 (LFA-1) was 11 µM each time.
For the molecule `CCCC[C@@H](COC(=O)N(Cc1cccs1)Cc1cccs1)NC(=O)N[C@@H](CC(=O)OC)c1ccc2c(c1)OCO2` [Compound C1, (6S,10S)-methyl 10-(1,3-benzodioxol-5-yl)-6-butyl-3,8-dioxo-1-(2-thienyl)-2-(2-thienylmethyl)-4-oxa-2,7,9-triazadodecan-12-oate], the EC50 on α4β1 (VLA-4) was determined as 32 µM; at αLβ2 (LFA-1) it was 26 µM.
In the same order, the values of `COc1cccc(CN(Cc2cccc(OC)c2)C(=O)CCCCC(=O)N(Cc2cccc(OC)c2)Cc2cccc(OC)c2)c1` [Compound C3, N^1,N^1,N^6,N^6-tetrakis(3-methoxybenzyl)adipamide] are 11 µM and 7 µM.

What is called EC50 is the concentration giving half of the maximal effect.
